19 compounds from PubChem BioAssay (NCI) can be followed below.

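Growth conditions: 96-well plates. Treatment: test compound, 48 hours, 5 concentrations. Analysis: linear interpolation between bracketing concentrations; unreached endpoints set to highest concentration. GI50 marks 50% less growth. TGI: total growth inhibition.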

Test systems include A549 NSCLC; IGROV1 ovarian; NCI-H226 lung; OVCAR-3 ovarian; OVCAR-5 ovarian; RPMI-8226 leukemia; SF-268 CNS; SK-OV-3 ovarian; SN12C renal; SNB-19 CNS; SNB-75 CNS; T-47D breast.
Common to all, as to test: NCI-60 cell line screen, 48 h

For the compound `CC(=O)N1C(CCc2ccccc2)CC(C)(C=O)C1Cc1ccc(O[Si](C(C)C)(C(C)C)C(C)C)cc1` (stereo unspecified), the TGI in the test with A549 NSCLC was 15.2 µM; in the test with IGROV1 ovarian, 19.1 µM; in the test with NCI-H226 lung, 19.9 µM; with OVCAR-3 ovarian it was 11.8 µM; in the test on OVCAR-5 ovarian it was 28.8 µM; in the test with RPMI-8226 leukemia it was 5.03 µM. Further, the TGI came out at 15.8 µM in the test on SF-268 CNS; 29.3 µM in the test on SK-OV-3 ovarian; 9.06 µM in the test with SN12C renal; 18.1 µM in the test with SNB-19 CNS; 18.4 µM in the test on SNB-75 CNS; 12.9 µM with T-47D breast.

For `COCCNCc1ccc(-c2cc3nccc(Oc4ccc(NC(=O)C5(C(=O)Nc6ccc(F)cc6)CC5)cc4F)c3s2)nc1`, the GI50 in the test with A549 NSCLC is 1.71 µM; with NCI-H226 lung it was 1.89 µM; with OVCAR-3 ovarian, 2.2 µM; with RPMI-8226 leukemia, 2.05 µM; in the test with SK-OV-3 ovarian, 1.93 µM; in the test on SNB-75 CNS, 1.03 µM. Besides, the GI50 in the test with T-47D breast was 2.01 µM. Besides, the TGI in the test on A549 NSCLC came to 4.15 µM; in the test with NCI-H226 lung it was 4.73 µM; with OVCAR-3 ovarian it was 4.82 µM; in the test with RPMI-8226 leukemia, 5.07 µM; in the test on SK-OV-3 ovarian it was 3.78 µM; in the test on SNB-75 CNS, 2.26 µM. For the same compound, the TGI in the test on T-47D breast came to 6.29 µM.

For the compound `Cc1ccc(C(C)C)c(OCC(=O)N/N=C/c2c[nH]c3ccc(Br)cc23)c1`, the TGI came out at 12.5 µM in the test with A549 NSCLC; 13.1 µM in the test on IGROV1 ovarian; 5.92 µM in the test with OVCAR-3 ovarian; 17.6 µM in the test on OVCAR-5 ovarian; 7.32 µM with RPMI-8226 leukemia; 23.9 µM with SF-268 CNS. For the same compound, the TGI was 12.7 µM in the test with SK-OV-3 ovarian; 13 µM with SN12C renal; 9.59 µM with SNB-19 CNS; 5.95 µM in the test on SNB-75 CNS; 24.8 µM with T-47D breast.

Take `Nc1nc(Cl)c(N)c(NCC2(CO)CCC(CCc3ccccc3)C2)n1` (stereo unspecified): the TGI is over 100 µM with A549 NSCLC; over 62.4 µM with IGROV1 ovarian; 42.5 µM in the test with NCI-H226 lung; 50.3 µM in the test on OVCAR-3 ovarian; 63.5 µM in the test with OVCAR-5 ovarian; 47.7 µM in the test on RPMI-8226 leukemia. Moreover, the TGI in the test on SF-268 CNS was 40.2 µM; in the test on SK-OV-3 ovarian, 63.8 µM; in the test on SN12C renal it was 63.2 µM; in the test with SNB-19 CNS it was over 94 µM; in the test on SNB-75 CNS it was 63.9 µM; with T-47D breast, over 59 µM.

Consider `O=S(O)CCCSSSCCCS(=O)O`, for which the TGI in the test on OVCAR-3 ovarian, in the test on OVCAR-5 ovarian, in the test on SF-268 CNS, in the test on SK-OV-3 ovarian, with SN12C renal and in the test on SNB-19 CNS was over 100 µM each time. The compound further showed a TGI with SNB-75 CNS of over 100 µM.

Consider `COc1cc(NCCC(=O)O)c2ncccc2c1`, for which the TGI in the test on A549 NSCLC, in the test on IGROV1 ovarian, in the test with NCI-H226 lung, in the test on OVCAR-3 ovarian, in the test on OVCAR-5 ovarian and with SF-268 CNS was over 100 µM each time. In addition, the TGI in the test on SN12C renal, with SNB-19 CNS and with T-47D breast was over 100 µM throughout.

For the compound `CSCC(CO)NC(=O)/C=C/c1c(C)[nH]c(=O)[nH]c1=O` (stereo unspecified), the TGI in the test with A549 NSCLC was over 875 µM; in the test with IGROV1 ovarian, over 875 µM; in the test on NCI-H226 lung, over 875 µM; with OVCAR-3 ovarian, 444 µM; in the test with OVCAR-5 ovarian, over 875 µM; with RPMI-8226 leukemia it was over 875 µM. The TGI in the test on SF-268 CNS, in the test with SK-OV-3 ovarian, with SN12C renal, with SNB-19 CNS and in the test on SNB-75 CNS was over 875 µM throughout.

As for `Cc1ccc(Nc2nc(=O)c3c([nH]c4ccccc43)s2)cc1`, the TGI was 25.1 µM with A549 NSCLC; 35.1 µM in the test with IGROV1 ovarian; 27.3 µM in the test on OVCAR-3 ovarian; 23.6 µM with RPMI-8226 leukemia; 35.6 µM with SF-268 CNS; over 100 µM with SK-OV-3 ovarian. The TGI in the test on SN12C renal is 31.6 µM; in the test with SNB-19 CNS it was over 100 µM; in the test on SNB-75 CNS, 31.6 µM; with T-47D breast it was 43.7 µM.

As to `COc1ccc(CCc2ccc3c(c2)OCO3)cc1`, the TGI in the test on A549 NSCLC, with IGROV1 ovarian, in the test on NCI-H226 lung, in the test on OVCAR-3 ovarian, in the test with OVCAR-5 ovarian and with RPMI-8226 leukemia was over 100 µM in each case. Moreover, the TGI with SF-268 CNS, with SK-OV-3 ovarian, with SN12C renal, in the test with SNB-19 CNS and in the test on SNB-75 CNS was over 100 µM in each case.

In the case of `NNC(=O)c1cc([N+](=O)[O-])ccc1NC(=O)C12CC3CC(CC(C3)C1)C2`, the TGI in the test on A549 NSCLC is 51.7 µM; in the test on IGROV1 ovarian, 8.53 µM; with NCI-H226 lung, 40.3 µM; in the test with OVCAR-3 ovarian, 84.3 µM; in the test on OVCAR-5 ovarian it was over 100 µM; in the test on RPMI-8226 leukemia, 35.8 µM. Also, the TGI was over 100 µM in the test on SF-268 CNS; 42.4 µM in the test on SK-OV-3 ovarian; over 100 µM in the test on SN12C renal; 21.4 µM in the test on SNB-19 CNS; 72.2 µM with T-47D breast.

As to `c1ccc2c(c1)SCCc1cn[nH]c1-2`, the TGI in the test with A549 NSCLC, with IGROV1 ovarian, with NCI-H226 lung, with OVCAR-3 ovarian, in the test with OVCAR-5 ovarian and with SF-268 CNS was over 100 µM throughout. Moreover, the TGI in the test with SK-OV-3 ovarian, in the test on SN12C renal, with SNB-19 CNS and in the test on SNB-75 CNS was over 100 µM throughout.

In the case of `c1csc(-c2ccc(CNc3c4ccccc4nc4ccccc34)cc2)c1`, the GI50 in the test on NCI-H226 lung is 5.57 µM; with OVCAR-3 ovarian, 1.58 µM; in the test on RPMI-8226 leukemia, 1.85 µM; in the test with SK-OV-3 ovarian, 11 µM; in the test on SN12C renal, 9.15 µM; in the test with SNB-75 CNS, 2.24 µM. For the same compound, the GI50 in the test with T-47D breast is 13.6 µM. In addition, the TGI with NCI-H226 lung came out at 38.6 µM; with OVCAR-3 ovarian it was 2.97 µM; in the test with RPMI-8226 leukemia, 4.8 µM; in the test on SK-OV-3 ovarian it was 29.8 µM; with SN12C renal it was 28.8 µM; in the test with SNB-75 CNS, 6.58 µM. The TGI with T-47D breast is 55.6 µM.

Regarding `NNC(=O)CCc1ccc2ccc3ccccc3c2c1`, the TGI in the test on IGROV1 ovarian, in the test on NCI-H226 lung, with OVCAR-3 ovarian, in the test on OVCAR-5 ovarian, with RPMI-8226 leukemia and in the test on SF-268 CNS was over 100 µM throughout. The TGI with SK-OV-3 ovarian, in the test on SN12C renal, with SNB-19 CNS and with T-47D breast was over 100 µM in each case.

For the compound `CN(c1ccccc1)c1nc(=[N+]2CCCC2)ss1`, the TGI in the test on A549 NSCLC, with IGROV1 ovarian, in the test with NCI-H226 lung, with OVCAR-3 ovarian, in the test on RPMI-8226 leukemia and in the test with SF-268 CNS was over 100 µM in each case. Further, the TGI with SK-OV-3 ovarian, in the test on SN12C renal, with SNB-19 CNS and in the test on SNB-75 CNS was over 100 µM each time.

Consider `Cc1cccc2c1Sc1ccccc1C2NC(=O)CN(C)C` (stereo unspecified), for which the TGI in the test on A549 NSCLC, with IGROV1 ovarian, with NCI-H226 lung, in the test with OVCAR-5 ovarian, in the test on RPMI-8226 leukemia and with SF-268 CNS was over 100 µM in each case. The TGI in the test with SK-OV-3 ovarian is over 100 µM; with SN12C renal, over 100 µM; in the test with SNB-19 CNS, over 100 µM; in the test on SNB-75 CNS, 86.7 µM.

Turning to `O=C(Sc1n[nH]c(=O)[nH]c1=O)c1cccc2nc3ccccc3nc12`, the TGI in the test with A549 NSCLC was 50.4 µM; in the test on IGROV1 ovarian, over 100 µM; in the test on NCI-H226 lung it was over 100 µM; with OVCAR-3 ovarian, over 100 µM; in the test with OVCAR-5 ovarian, over 100 µM; in the test with RPMI-8226 leukemia, over 100 µM. The TGI with SF-268 CNS, with SK-OV-3 ovarian, with SN12C renal, with SNB-19 CNS and with T-47D breast was over 100 µM throughout.

Turning to `c1ccc(C2=NN=C3C(c4ccccc4)=Nc4ccccc4N3C2)cc1`, the TGI is over 100 µM in the test on A549 NSCLC; over 100 µM with IGROV1 ovarian; over 70.2 µM in the test on NCI-H226 lung; over 24.5 µM in the test on OVCAR-3 ovarian; over 94.3 µM in the test with OVCAR-5 ovarian; 40.8 µM in the test on RPMI-8226 leukemia. The TGI in the test with SF-268 CNS was over 60.2 µM; in the test with SK-OV-3 ovarian, over 100 µM; in the test with SN12C renal, over 100 µM; in the test with SNB-19 CNS it was over 100 µM; in the test with T-47D breast, over 100 µM.

For the compound `CO/C=C1\OC(=O)C=C1OC`, the TGI in the test with A549 NSCLC, in the test on IGROV1 ovarian, in the test with NCI-H226 lung, in the test with OVCAR-3 ovarian, with OVCAR-5 ovarian and in the test with RPMI-8226 leukemia was over 100 µM in each case. The TGI in the test with SF-268 CNS, with SK-OV-3 ovarian, in the test on SN12C renal, with SNB-19 CNS and in the test on SNB-75 CNS was over 100 µM throughout.

`O=C(Cn1c(C(=O)/C=C/c2ccc(Cl)cc2)nc2ccccc21)c1ccc(Cl)cc1`: the TGI with A549 NSCLC was 71.5 µM; with IGROV1 ovarian, 71.7 µM; in the test on NCI-H226 lung, 64.4 µM; in the test with OVCAR-3 ovarian it was 22.9 µM; in the test with OVCAR-5 ovarian, 64.1 µM; in the test with RPMI-8226 leukemia, 49.7 µM. For the same compound, the TGI with SF-268 CNS is over 100 µM; in the test with SK-OV-3 ovarian, over 100 µM; in the test with SN12C renal, 37.3 µM; in the test with SNB-19 CNS it was 69.5 µM; in the test with T-47D breast, over 100 µM.
